The values below come from US9757379B2, “Inhibition of HIF-2α heterodimerization with HIF1β (ARNT)” (The Board of Regents of the University of Texas System, priority 2012, dated 2017).

A word on the Kd: it is the equilibrium constant for the complex coming apart. Low values mean higher affinity, high ones lower affinity. What is called IC50 is the concentration that gives 50% inhibition.

“Also recorded” adds a separate entry of the source. Where only a bound is given, the exact number is not on record here.

For data set [1], the system named is PGK1. Put plainly: PGK1 mRNA expression in Hep3B cells (HIF-1α marker). The settings on record: 1 or 10 μM, hypoxic (1% O2) 6 or 12 hr. The data set is classed as cell-based.
Data set [2] has as its target T1, full length HIF-2α and ARNT (Homo sapiens, UniProt Q99814).
T1 construct: heterodimerization between full length HIF-2α and ARNT polypeptides; endogenous in cells; host or cells: Hep3B (hypoxic), nuclear extracts
Description: Co-IP of HIF-2α with ARNT, nuclear extracts of hypoxic Hep3B cells. The data set is classed as biochemical. The settings on record: increasing concentrations.
Description: An antibody recognizing the N-terminus of ARNT, was used to immunoprecipitate (IP) the endogenous ARNT protein from the nuclear extracts (FIG. 17 b; top panel).
Co-IP: Nuclear protein extraction and co-IP experiments were performed as reported in Semenza, G. L. Hypoxia-inducible factors: mediators of cancer progression and targets for cancer therapy. […] The following antibodies were used for immunoblot analysis: anti-HIF-1α mouse monoclonal antibody (BD Biosciences); anti-EPAS/HIF-2α mouse monoclonal antibody (Novus Biological); anti-ARNT/HIF-1β mouse monoclonal antibody (Novus Biological).

Data set [3] has as its target T2, HIF-1 heterodimerization (Homo sapiens, UniProt Q16665).
T2 construct: Nuclear extracts prepared from hypoxic Hep3B cells expressing ARNT, HIF-1α, and HIF-2α (input); endogenous in cells; host or cells: Hep3B (hypoxic), nuclear extracts
Put plainly: Co-IP of HIF-1α with ARNT, nuclear extracts of hypoxic Hep3B cells. The data set is classed as biochemical. The note with it: increasing amounts. The source says: (§1) Ensuing allosteric conformational changes propagate to the surface of the domain, weakening interactions with the ARNT PAS-B domain and disrupting heterodimerization of the full length HIF-2 transcription factor.

The target of data set [4] is GST-ARNT-PAS-B*-FLAG (Homo sapiens, UniProt P27540, E362R). Put plainly: AlphaScreen control reaction with doubly tagged protein. The format is biochemical. The note with it: single doubly tagged protein. In general terms: Bead proximity is the source of the signal in Alpha formats.
Chain of GST-ARNT-PAS-B*-FLAG (P27540 355-470 E362R): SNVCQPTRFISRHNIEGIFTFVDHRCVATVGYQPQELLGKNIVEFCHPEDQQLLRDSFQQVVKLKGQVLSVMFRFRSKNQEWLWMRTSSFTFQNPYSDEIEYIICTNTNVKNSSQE
Description: Upon illumination with red (680 nm) light, donor beads will generate short-lived singlet oxygen (^1O2). Nearby (<200 nm) acceptor beads can react with ^1O2 to emit light at shorter wavelengths (top). Compounds that disrupt the complex correspondingly eliminate this signal (bottom). Compounds that non-specifically interfere with the AlphaScreen assay can be identified with a counterscreen in which the ARNT PAS-B* domain was simultaneously tagged with both the GST and FLAG tags. […] At these concentrations, protein binding to the acceptor beads has become saturated and free ARNT PAS-B* competes with the coated acceptor beads for the donor beads bound to HIF-2α PAS-B*. […] Assays were performed in triplicate and the error bars represent±SD.
For data set [5], the system named is VEGF. Put plainly: VEGF protein secretion by ELISA, 786-O cells. The settings on record: about 18 hours, 0.00655-20 μM. The format is cell-based, human. As for the experimental part: VEGF protein secretion was measured by ELISA following incubation of cultured 786-O cells for about eighteen (18) hours with Compund (1) (FIG. 19a) or with Compound (47) (FIG. 19b).

For data set [6], the system named is 786-0 cells. Description: Cell viability, ATP levels by Cell Titer Glo. The format is cell-based, human. The note with it: 24 hr, as much as 30 μM. Here is the method:
Assays were performed in triplicates and the error bars represent±SD.
(§2) 786-0 cells, derived from a human renal cell carcinoma, lack functional pVHL and constitutively accumulate HIF-2α under normoxic conditions. These cells also lack detectable HIF-1α expression so that HIF-dependent regulation of target genes is attributable to HIF-2α isoform.

The test system of data set [7] is HIF-2α. Description: ChIP, HIF-2α DNA binding in cultured cells. The data set is classed as cell-based, human. The settings on record: 10 μM, hypoxic conditions. As for the experimental part: (§3) Chromatin immunoprecipation (ChIP) using antibodies raised against HIF-1α or HIF-2α was used to measure HIF DNA binding in cultured cells.
(§4) Proc Natl Acad Sci USA 106, 4260-4265 (2009) using the ChIP-IT Express Enzymatic Kit (Active Motif) according to the manufacturer's protocol. ChIP assays were carried out using normal mouse IgG (Santa Cruz Biotechnology), anti-HIF-2α mouse monoclonal antibody (Novus Biologicals), or anti-HIF-1α mouse monoclonal antibody (BD Biosciences). The precipitated genomic DNA was analyzed by qPCR using the primers for a human EPO enhancer amplicon ([…]; […]). The captured genomic DNA was measured by normalizing with that of input material and compared between sample.

In data set [8] the test system is EPO. Description: EPO mRNA expression in Hep3B cells (HIF-2α marker). The note with it: 1 or 10 μM, hypoxic (1% O2) 6 or 12 hr. The format is cell-based.
Data set [9] addresses HIF-1α PAS-B (Homo sapiens, UniProt Q16665). Put plainly: Isothermal titration calorimetry (ITC) on HIF-1α PAS-B. The data set is classed as binding. The note with it: same conditions as for HIF-2α PAS-B.
Description: as §1
On the technique in general: Isothermal titration calorimetry measures the heat released or taken up as one component is titrated into another.

The target of data set [10] is T3, HIF-1α (Homo sapiens, UniProt Q16665).
T3 construct: endogenous in cells
T3 sequence (Q16665 whole entry): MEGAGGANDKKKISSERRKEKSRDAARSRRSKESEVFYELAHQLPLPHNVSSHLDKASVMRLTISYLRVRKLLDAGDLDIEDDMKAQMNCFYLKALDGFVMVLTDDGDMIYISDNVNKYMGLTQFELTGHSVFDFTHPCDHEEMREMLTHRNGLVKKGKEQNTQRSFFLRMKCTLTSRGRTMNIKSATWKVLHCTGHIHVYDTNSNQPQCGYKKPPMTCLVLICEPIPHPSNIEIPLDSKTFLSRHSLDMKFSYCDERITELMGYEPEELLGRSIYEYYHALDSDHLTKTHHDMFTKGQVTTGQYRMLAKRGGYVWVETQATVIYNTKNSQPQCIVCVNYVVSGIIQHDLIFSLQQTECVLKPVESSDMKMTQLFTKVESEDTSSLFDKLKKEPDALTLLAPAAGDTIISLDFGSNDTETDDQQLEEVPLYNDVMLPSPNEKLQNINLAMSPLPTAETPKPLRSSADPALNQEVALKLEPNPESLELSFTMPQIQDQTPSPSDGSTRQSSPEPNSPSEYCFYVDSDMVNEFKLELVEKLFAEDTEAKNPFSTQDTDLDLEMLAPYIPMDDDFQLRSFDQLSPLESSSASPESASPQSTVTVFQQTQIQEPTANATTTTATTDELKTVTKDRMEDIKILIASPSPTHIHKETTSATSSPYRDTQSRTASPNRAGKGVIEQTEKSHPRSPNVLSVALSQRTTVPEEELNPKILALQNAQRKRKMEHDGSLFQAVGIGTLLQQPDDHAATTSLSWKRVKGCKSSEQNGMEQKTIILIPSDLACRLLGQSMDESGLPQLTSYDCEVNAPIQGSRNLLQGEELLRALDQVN
T3 sequence (P27540 2-789 partner limits assumed): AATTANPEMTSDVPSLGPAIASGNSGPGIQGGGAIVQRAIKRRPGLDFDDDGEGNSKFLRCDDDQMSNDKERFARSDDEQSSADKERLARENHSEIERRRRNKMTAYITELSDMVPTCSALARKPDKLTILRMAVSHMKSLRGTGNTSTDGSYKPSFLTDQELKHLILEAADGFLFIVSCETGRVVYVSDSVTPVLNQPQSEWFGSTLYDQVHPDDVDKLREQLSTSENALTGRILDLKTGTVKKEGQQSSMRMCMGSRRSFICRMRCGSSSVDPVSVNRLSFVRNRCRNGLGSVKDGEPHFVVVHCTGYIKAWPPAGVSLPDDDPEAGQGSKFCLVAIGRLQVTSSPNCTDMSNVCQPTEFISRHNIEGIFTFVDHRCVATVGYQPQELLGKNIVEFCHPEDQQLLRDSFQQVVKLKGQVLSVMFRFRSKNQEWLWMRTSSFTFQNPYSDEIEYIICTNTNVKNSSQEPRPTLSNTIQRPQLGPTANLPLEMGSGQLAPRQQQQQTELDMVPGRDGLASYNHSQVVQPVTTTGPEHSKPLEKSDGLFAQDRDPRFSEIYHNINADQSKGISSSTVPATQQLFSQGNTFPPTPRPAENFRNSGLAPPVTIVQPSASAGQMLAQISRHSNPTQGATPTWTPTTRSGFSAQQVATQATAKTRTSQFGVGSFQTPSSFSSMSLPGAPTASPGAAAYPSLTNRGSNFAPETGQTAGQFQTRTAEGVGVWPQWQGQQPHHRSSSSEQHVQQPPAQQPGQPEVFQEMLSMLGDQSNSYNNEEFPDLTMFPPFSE
Description: ChIP, HIF-1α DNA binding in cultured cells. The data set is classed as cell-based. The settings on record: 10 μM, hypoxic conditions. As for the experimental part:
as §3, §4

Data set [11] has as its system HIF-2α or HIF-1α mRNA. Description: HIF-1α and HIF-2α mRNA levels in Hep3B cells, RT-PCR. The data set is classed as cell-based.
Data set [12] addresses HIF-2α PAS-B*/ARNT PAS-B* heterodimer (Homo sapiens, UniProt Q99814, R247E). Description: AlphaScreen, HIF-2α PAS-B*/ARNT PAS-B* heterodimerization.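 Further: GST-tagged HIF-2α PAS-B* and FLAG-tagged ARNT PAS-B* with glutathione donor and anti-FLAG acceptor beads, luminescence after 680 nm excitation, loss of signal indicating disrupted heterodimer.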
Description: (FIG. 8a) As shown in the cartoon schematic, interactions between GST-tagged HIF-2α (green) and FLAG-tagged ARNT (blue) PAS-B* domains recruit both donor beads (D), coated with glutathione, and acceptor beads (A), coated with anti-FLAG antibodies, to one another. Upon illumination with red (680 nm) light, donor beads will generate short-lived singlet oxygen (^1O2). Nearby (<200 nm) acceptor beads can react with ^1O2 to emit light at shorter wavelengths (top). Compounds that disrupt the complex correspondingly eliminate this signal (bottom). Compounds that non-specifically interfere with the AlphaScreen assay can be identified with a counterscreen in which the ARNT PAS-B* domain was simultaneously tagged with both the GST and FLAG tags. (FIG. 8b) The AlphaScreen signal (relative units; RU) reflecting protein-protein interactions between 25 (open triangles), 50 (open circles) or 100 (closed circles) nM HIF-2α PAS-B* increases with increasing concentrations of ARNT PAS-B*. At the highest ARNT PAS-B* concentrations, a decrease in signal reflects the hook effect. At these concentrations, protein binding to the acceptor beads has become saturated and free ARNT PAS-B* competes with the coated acceptor beads for the donor beads bound to HIF-2α PAS-B*. […] Assays were performed in triplicate and the error bars represent±SD.
Inhibition of heterodimerization of HIF-2α to HIF1β (ARNT) may be determined in an Amplified Luminescent Proximity Homogeneous Assay (AlphaScreen).
The AlphaScreen assay can be done according to the following procedures: • 1. Prepare cold binding buffer solution: 20 mM Tris-Cl (pH=7.5), 100 mM NaCl, 1 mM DTT, 0.02% Tween-20 (final concentration) and place on ice to keep temperature approximately 4° C. • 2. Prepare Protein Mix: To a 50 mL conical tube add 23 mL of cold buffer and 0.04 mL of both GST-HIF2α PASB* (100 μM) and ARNT-PASB*-Flag (100 μM). • 3. Distribute to 96 well plate: Add 60 μL of protein mix to each wells. • 4. Adding Compound: Dissolve compounds in DMSO to obtain a final concentration of 10 mM. Then create the appropriate dilutions for your particular compound in glass vials. Once all the dilutions are ready place 1 μL of compound in each well. • 5. Prepare Bead mix: In the dark room using green light only create a tube with 3.84 mL of cold buffer and 3 μL of GST Donor beads and Flag acceptor beads. • 6. Distribute Bead mix: Invert the tube a couple times before distributing 40 μL of mix to each well. • 7. Incubation: After adding beads wrap the plate in tin foil twice and remove the covered plate from dark room. Incubate the plate at room temperature while rocking gently for 4 hours. • 8. Read: After 4 hours place the uncovered plate in the plate reader. Make sure the room is relatively tree of white light when placing the plate in the machine. It is ok to have the green light on if needed. • 9. […] Flag acceptor beads should be aliquoted into small opaque tubes (20-50 μl per tube) upon arrival from the manufacturer. Place both sets of beads in 4° C. storage when not in use. • 11. Avoid expose beads to white light. • 12. Pipette beads up and down several times before adding to a tube of cold buffer solution. • 13. Amount of Beads used for Bead mix may vary from batch to batch.
Data set [13] has as its system HIF-2α. Put plainly: HIF-2α expression in 786-0 cells (RT-PCR, immunoblot). The data set is classed as cell-based, human. The settings on record: normoxic 786-0 cells.
Description: as §2

The subject of data set [14] is VEGF. Put plainly: HIF-2 target gene (VEGF) expression in 786-0 cells, RT-PCR. The data set is classed as cell-based, human. The note with it: 18 hr.
Description: as §2

For data set [15], the target named is HIF-2α PAS-B (Homo sapiens, UniProt Q99814). Description: Isothermal titration calorimetry (ITC) on HIF-2α PAS-B.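 Further: Wild-type protein (200 µM) titrated into 5-10 µM compound, heats of dilution from a compound-free titration subtracted, isotherms fit to a single-site model.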
Chain of HIF-2α PAS-B (Q99814 240-350): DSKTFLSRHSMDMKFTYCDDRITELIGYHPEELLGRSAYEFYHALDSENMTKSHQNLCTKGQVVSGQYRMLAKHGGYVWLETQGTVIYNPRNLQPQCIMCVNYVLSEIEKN
Description: ITC, as described more fully below, introduces a wild-type HIF-2α PAS-B solution into a to-be-assayed compound solution using, for example, a VP-ITC instrument (MicroCal). After subtracting heats of dilution evolved from the titrating protein, e.g., wild-type HIF-2α PAS-B, into a compound-free buffer, data were fit to a single-site binding model with, for example, MicroCal Origin® software to determine complex affinities.
The following is a general procedure describing the ITC assay Thermodynamic parameters of small molecule binding are determined using a MicroCal VP-ITC calorimeter. Solutions of HIF-2α PAS-B are extensively dialyzed against buffer (50 mM Tris (pH 7.5), 20 mM NaCl and 5 mM beta-mercaptoethanol), which is subsequently used to prepare a matched compound solution by dilution from a 50 mM compound stock in 100% DMSO. […] Each isotherm is recorded by injecting 200 μM protein (syringe) into 5-10 μM solutions of compound (cell), accounting for dilution heats by subtracting data from a control titration of 200 μM protein into a matched buffer-DMSO solution. Thermograms are fit to a single site binding model to extract equilibrium binding parameters.

Chain of HIF-1α PAS-B (Q16665 238-349): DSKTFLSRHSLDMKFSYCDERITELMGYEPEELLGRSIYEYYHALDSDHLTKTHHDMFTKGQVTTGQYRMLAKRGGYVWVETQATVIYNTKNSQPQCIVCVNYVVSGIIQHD
Chain of HIF-2α PAS-B*/ARNT PAS-B* heterodimer (Q99814 240-350 R247E, one chain of several): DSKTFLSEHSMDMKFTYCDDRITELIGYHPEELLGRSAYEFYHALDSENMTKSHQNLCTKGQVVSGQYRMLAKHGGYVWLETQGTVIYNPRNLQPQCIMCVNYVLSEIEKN
T2 sequence (Q16665 whole entry): as the sequence (Q16665 whole entry) above
T2 sequence (P27540 2-789 partner limits assumed): as the sequence (P27540 2-789 partner limits assumed) above
T1 sequence (Q99814 whole entry): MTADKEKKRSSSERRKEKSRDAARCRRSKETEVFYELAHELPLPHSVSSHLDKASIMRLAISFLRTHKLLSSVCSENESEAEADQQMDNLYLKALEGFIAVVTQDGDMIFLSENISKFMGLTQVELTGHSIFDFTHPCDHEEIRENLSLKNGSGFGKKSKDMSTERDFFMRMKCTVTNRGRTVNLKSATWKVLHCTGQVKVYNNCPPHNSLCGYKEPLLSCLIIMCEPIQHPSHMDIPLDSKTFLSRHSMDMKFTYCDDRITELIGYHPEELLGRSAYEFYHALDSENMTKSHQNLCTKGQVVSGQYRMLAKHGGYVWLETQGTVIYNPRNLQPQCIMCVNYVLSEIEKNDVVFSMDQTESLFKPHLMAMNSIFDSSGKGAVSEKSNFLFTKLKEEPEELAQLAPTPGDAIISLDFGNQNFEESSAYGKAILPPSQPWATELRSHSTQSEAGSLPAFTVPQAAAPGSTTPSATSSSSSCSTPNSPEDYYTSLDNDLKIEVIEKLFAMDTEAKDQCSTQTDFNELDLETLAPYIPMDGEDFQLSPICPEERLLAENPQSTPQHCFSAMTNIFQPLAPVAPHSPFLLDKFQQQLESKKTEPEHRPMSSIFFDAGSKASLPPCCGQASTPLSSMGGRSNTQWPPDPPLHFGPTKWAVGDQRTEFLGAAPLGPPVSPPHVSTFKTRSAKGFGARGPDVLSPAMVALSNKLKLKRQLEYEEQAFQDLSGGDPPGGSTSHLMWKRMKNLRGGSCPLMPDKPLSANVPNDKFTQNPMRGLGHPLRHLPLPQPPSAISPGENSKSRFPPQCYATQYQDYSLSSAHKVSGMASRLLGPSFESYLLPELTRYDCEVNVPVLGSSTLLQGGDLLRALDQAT

On to `O=[N+]([O-])c1c(Nc2cc(F)cc(Cl)c2)ccc2nonc12` [Compound 1, N-(3-chloro-5-fluorophenyl)-4-nitrobenzo[c][1,2,5]oxadiazol-5-amine], for which the “Expression of PGK1” value in data set [1] is “no effect”. The “Heterodimerization of full length HIF-2 transcription factor (co-IP)” value in data set [2] is reported as “disrupts heterodimerization”. In addition, the “Effect on HIF-1 heterodimerization by Co-IP” value in [3] was “little effect”. Moreover, the “Effect on AlphaScreen signal of control reaction” value in data set [4] is given as “No effect”. For the same compound, the VEGF protein secretion result in [5] is listed as “reduce VEGF protein secretion in a dose-dependent manner”. In addition, the “Toxicity to cultured cells (ATP levels as cell viability)” value in data set [6] is listed as “No overt toxicity; also recorded: not overtly toxic”. In addition, the “HIF-2α DNA-binding activity (ChIP)” value in data set [7] is reported as “substantially decreased; also recorded: selectively disrupts”. Moreover, in data set [8], the “Hypoxic induction of EPO mRNA” value is “antagonized”. Further, in data set [9], the “ITC protein-ligand interaction, HIF-1α PAS-B” value is “effectively does not bind; also recorded: does not show detectable protein-ligand interaction” and the Kd is greater than 5000 nM. Besides, the “HIF-1α DNA-binding activity (ChIP)” value in data set [10] is given as “unaffected”. Besides, the “HIF-1α and -2α mRNA levels” value in data set [11] is listed as “no effect”. In addition, in [12], the IC50 is 100 nM. Also, the “Effect on HIF-2α/ARNT PAS-B* heterodimerization in AlphaScreen” value in data set [12] (triplicate) is given as “blocks heterodimer assembly”. In addition, the “Effect on HIF-2α expression (mRNA, protein)” value in data set [13] is “does not alter; also recorded: no effect”. For the same compound, the “Expression of HIF-2 target gene (VEGF)” value in data set [14] is reported as “reduced in a dose-dependent manner; also recorded: antagonized”.
In the case of `Fc1cc(Br)cc([C@@H]2C[C@H](c3cccc(Br)c3)n3nnnc3N2)c1` [Compound 47, (5S,7R)-5-(3-Bromo-5-fluorophenyl)-7-(3-bromophenyl)-4,5,6,7-tetrahydrotetrazolo[1,5-a]pyrimidine], the dissociation constant Kd in data set [15] stood at 83 nM. In addition, the VEGF protein secretion result in [5] is recorded as “reduce VEGF protein secretion in a dose-dependent manner”. In addition, half-maximal inhibition in data set [12] (IC50) was put at 100 nM.
